Measured values from PMC9739695, “Water-Soluble Salts Based on Benzofuroxan Derivatives—Synthesis and Biological Activity” (International Journal of Molecular Sciences, 2022).
Counter-ions that a name gives are not always drawn. Like-named read-outs stand apart in the source and are kept apart here.

How the values were obtained:
wheat seeds = assay: Pre-sowing seed treatment, sowing qualities of wheat seeds; format: in vivo; details: for germination energy: control 82; for laboratory germination: control 85.7
Method: (§1) When evaluating the effectiveness of treatment of wheat, alfalfa, barley, rice, and sorghum seeds as fungicidal and bactericidal agents with preparation compounds at concentrations of 10, 20, and 40 mmol, their effect on the suppression of seed infection was evaluated.
(§2) […] The sowing qualities were evaluated (germination energy for 3–4 days, laboratory germination for 7–8 days) according to GOST 12038-84 [60]. Sowing qualities of seeds were determined in wet chambers. According to the sample, 50 seeds were taken in 4-fold repetition.

[1] = tested on: A549 (adenocarcinomic human alveolar basal epithelial cells); assay: Cell viability, MTT test; format: cell-based; details: test range 0.1 to 100 μM, read-out: IC50 (concentration causing 50% inhibition of cell population growth)
Method: (§3) In this work, the cytotoxic potential of the water-soluble salts based on benzofuroxan was determined by the effect of compounds on the survival of the cell tumor origin cultures (SH-SY5Y, Hep2, A549, HeLa) using the MTT test. To understand how the synthesized compounds can influence the healthy microenvironment in the body, the effect of substances on the viability of a normal Hek 293 cell culture was additionally evaluated.
(§4) Human cell cultures of tumor origin—SH-SY5Y (neuroblastoma), HeLa (cervical tumor), Hep-2 (larynx carcinoma), A549 (adenocarcinomic human alveolar basal epithelial cells)—and normal cell line Hek 293 (human embryonic kidneys), provided by the Laboratory of Tumor Cell Genetics of the Scientific Research Institute of Carcinogenesis, N.N. Blokhin National Medical Research Center of Oncology, as well as the Institute of Cytology of the Russian Academy of Sciences, were grown in a nutrient medium DMEM (PanEco, Moscow, Russia) and MEM (PanEco, Moscow, Russia), containing fetal bovine serum (10% by volume) (ThermoFisher Scientific, Paisley, UK), Glutamax (2 mM) (Gibco, Scotland, UK), and penicillin-streptomycin (1% by volume) (PanEco, Moscow, Russia). The cultivation was carried out at 37 °C in a humidified CO2 atmosphere (5%).
(§5) Cell viability was determined by MTT test. Cells were seeded in a 96-well plate in the amount of 1 × 10^4 cells/200µLof complete nutrient medium and cultured at 37 °C in CO2 (5%). After 24 h of incubation, various concentrations of test compounds in the range from 0.1 to 100 μM, were added to the cell cultures, and then the cells were cultured under the same conditions for 24 and 72 h. For each concentration, the experiment was carried out in triplicate.
(§6) All compounds were dissolved in DMSO, then diluted with the medium to the required concentration. […] The DMSO was also added to the control wells in a volume of 1%. After the incubation time, MTT (3-(4,5-dimethylthiazol-2-yl)-2,5-diphenyltetrazolium bromide, 5 mg/mL) was added to each well and plates were additionally incubated for 2 h (until the characteristic color appeared).
(§7) Using a plate analyzer (Cytation3, BioTech Instruments Inc., Winooski, VT, USA), the optical density was determined at 530 nm. The concentration value causing 50% inhibition of cell population growth (IC50) was determined from dose-dependent curves.

Hep-2 (larynx carcinoma) = assay: Cell viability, MTT test; format: cell-based; details: Homo sapiens, HEp-2, test range 0.1 to 100 μM, read-out: IC50 (concentration causing 50% inhibition of cell population growth)
Method: as §3, §4, §5, §6, §7

HeLa (cervical tumor) = assay: Cell viability, MTT test; format: cell-based; details: Homo sapiens, test range 0.1 to 100 μM, read-out: IC50 (concentration causing 50% inhibition of cell population growth)
Method: as §3, §4, §5, §6, §7

barley seeds = assay: Pre-sowing seed treatment, sowing qualities of barley seeds; format: in vivo; details: for germination energy / laboratory germination: control 95.2
Method: as §1, §2

alfalfa seeds = assay: Pre-sowing seed treatment, sowing qualities of alfalfa seeds; format: in vivo; details: for germination energy / laboratory germination: control 76
Method: as §1, §2

SH-SY5Y (neuroblastoma) = assay: Cell viability, MTT test; format: cell-based, Human; details: Homo sapiens, SH-SY5Y, test range 0.1 to 100 μM, read-out: IC50 (concentration causing 50% inhibition of cell population growth)
Method: as §3, §4, §5, §6, §7

[2] = tested on: Hek 293 (human embryonic kidneys); assay: Cell viability, MTT test, normal cell line; format: cell-based; details: HEK293, Hek 293 normal cells, test range 0.1 to 100 μM, read-out: IC50 (concentration causing 50% inhibition of cell population growth)
Method: as §3, §4, §5, §6, §7

[3] = tested on: fungal microflora (mushrooms) on alfalfa seeds; assay: Growth of fungal microflora on treated alfalfa seeds; format: cell-based
Method: During phytopathological analyses of agricultural crops, the species composition of fungal and bacterial microflora was established. Laboratory studies were carried out on two nutrient media potato-agar (ingredients: potatoes—200 g; agar-agar—20 g; distilled water—1000 mL.) and potato-dextrose agar (ingredients: potatoes—200 g;dextrose—20 g; agar-agar—20 g; distilled water—1000 mL), according to the guidelines.
When evaluating the effectiveness of treatment of wheat, alfalfa, barley, rice, and sorghum seeds as […], their effect on the suppression of seed infection was evaluated.

rice seeds = assay: Pre-sowing seed treatment, sowing qualities of rice seeds; format: in vivo; details: for germination energy: control 71.4; for laboratory germination: control 95.2
Method: as §1, §2

sorghum seeds = assay: Pre-sowing seed treatment, sowing qualities of sorghum seeds; format: in vivo; details: for germination energy: control 52.3; for laboratory germination: control 57
Method: as §1, §2

Compound: Cl.O=[N+]([O-])c1c(Cl)cc2c(no[n+]2[O-])c1NCCN1CCCCC1
- melting point: 106 to 107 °C

Compound: O=[N+]([O-])c1c(Cl)cc2c(no[n+]2[O-])c1NCCN1CCOCC1 (as salt: chloride) [4d, 6-chloro-4-(2-(morpholino-4-ium)ethylamino)-5-nitrobenzo[c][1,2,5]oxadiazole 1-oxide chloride]
- melting point: 186 to 187 °C

Compound: CN(C)Cc1ccccc1Nc1c([N+](=O)[O-])c(Cl)cc2c1no[n+]2[O-] [3a, 6-chloro-4-(2-((dimethylamino)methyl)phenylamino)-5-nitrobenzo[c][1,2,5]oxadiazole 1-oxide]
- melting point: 152 to 153 °C (dec.)

Compound: CN(C)Cc1cccc(Nc2c([N+](=O)[O-])c(Cl)cc3c2no[n+]3[O-])c1 [3b, 6-chloro-4-(3-((dimethylamino)methyl)phenylamino)-5-nitrobenzo[c][1,2,5]oxadiazole 1-oxide]
- melting point: 118 to 119 °C

Compound: CN(C)Cc1ccc(Nc2c([N+](=O)[O-])c(Cl)cc3c2no[n+]3[O-])cc1 [3c, 6-chloro-4-(4-((dimethylamino)methyl)phenylamino)-5-nitrobenzo[c][1,2,5]oxadiazole 1-oxide]
- melting point: > 300 °C (dec.)

Compound: O=[N+]([O-])c1c(Cl)cc2c(no[n+]2[O-])c1NCCN1CCOCC1 [3d, 6-chloro-4-(2-morpholinoethylamino)-5-nitrobenzo[c][1,2,5]oxadiazole 1-oxide]
- melting point: 140 to 141 °C

Compound: O=[N+]([O-])c1c(Cl)cc2c(no[n+]2[O-])c1NCCN1CCCCC1 [3f, 6-chloro-5-nitro-4-(2-(piperidin-1-yl)ethylamino)benzo[c][1,2,5]oxadiazole 1-oxide]
- melting point: 88 to 89 °C

Compound: CN(C)Cc1ccccc1Nc1c([N+](=O)[O-])c(Cl)cc2c1no[n+]2[O-].Cl [4a, 6-chloro-4-(2-((dimethylammonio)methyl)phenylamino)-5-nitrobenzo[c][1,2,5]oxadiazole 1-oxide chloride]
- sowing qualities of seeds compared with control (wheat seeds; 10 mmol): higher than in the case of controls
- germination energy (wheat seeds; 10 mmol): 97%
- laboratory germination (wheat seeds; 10 mmol): 96.5%
- sowing qualities of seeds compared with control (wheat seeds; 50 mmol): higher than in the case of controls
- germination energy (wheat seeds; 50 mmol): 95%
- laboratory germination (wheat seeds; 50 mmol): 96.5%
- IC50 ([1]; A549, incubation 24 h): 95.5 ± 1.01 µM
- IC50 ([1]; A549, incubation 72 h): 92.1 ± 3.58 µM
- IC50 (Hep-2 (larynx carcinoma); Hep2, incubation 24 h): 98.5 ± 2.54 µM
- IC50 (Hep-2 (larynx carcinoma); Hep2, incubation 72 h): 90.1 ± 3.1 µM
- IC50 (HeLa (cervical tumor); incubation 24 h): 40.2 ± 2.73 µM
- IC50 (HeLa (cervical tumor); incubation 72 h): 32.9 ± 0.56 µM
- sowing qualities of seeds compared with control (barley seeds; 10 mmol): higher than control
- germination energy (barley seeds; 10 mmol): 96%
- laboratory germination (barley seeds; 10 mmol): 99%
- sowing qualities of seeds compared with control (barley seeds; 50 mmol): higher than control
- germination energy (barley seeds; 50 mmol): 95%
- laboratory germination (barley seeds; 50 mmol): 97.5%
- sowing qualities of seeds compared with control (alfalfa seeds; 10 mmol): higher than controls
- germination energy (alfalfa seeds; 10 mmol): 83%
- laboratory germination (alfalfa seeds; 10 mmol): 84.5%
- sowing qualities of seeds compared with control (alfalfa seeds; 50 mmol): higher than controls
- germination energy (alfalfa seeds; 50 mmol): 78%
- laboratory germination (alfalfa seeds; 50 mmol): 79.5%
- IC50 (SH-SY5Y (neuroblastoma); incubation 24 h): 44 ± 1.09 µM
- IC50 (SH-SY5Y (neuroblastoma); incubation 72 h): 35.1 ± 3.85 µM
- IC50 ([2]; incubation 24 h): 38.62 ± 0.1 µM
- IC50 ([2]; incubation 72 h): 16.1 ± 1.86 µM
- melting point: 125 to 126 °C (dec.)
- effect on fungal microflora ([3]; 10 mmol): positive effect on the suppression of fungal microflora
- effect on fungal microflora ([3]; 50 mmol): positive effect on the suppression of fungal microflora
- sowing qualities of seeds compared with control (rice seeds; 10 mmol): better results than the control
- germination energy (rice seeds; 10 mmol): 96%
- laboratory germination (rice seeds; 10 mmol): 96.5%
- sowing qualities of seeds compared with control (rice seeds; 50 mmol): better results than the control
- germination energy (rice seeds; 50 mmol): 99%
- laboratory germination (rice seeds; 50 mmol): 99%
- germination energy (sorghum seeds; 10 mmol): 47.5%
- laboratory germination (sorghum seeds; 10 mmol): 49.5%
- sowing qualities of seeds compared with control (sorghum seeds; 50 mmol): at the control level
- germination energy (sorghum seeds; 50 mmol): 52.5%
- laboratory germination (sorghum seeds; 50 mmol): 56.5%

Compound: CN(C)Cc1cccc(Nc2c([N+](=O)[O-])c(Cl)cc3c2no[n+]3[O-])c1 [4b, 6-chloro-4-(3-((dimethylammonio)methyl)phenylamino)-5-nitrobenzo[c][1,2,5]oxadiazole 1-oxide chloride]
- IC50 ([1]; A549, incubation 24 h): 99.2 ± 3.38 µM
- IC50 ([1]; A549, incubation 72 h): 90 ± 2.04 µM
- IC50 (Hep-2 (larynx carcinoma); Hep2, incubation 24 h): 97 ± 2.08 µM
- IC50 (Hep-2 (larynx carcinoma); Hep2, incubation 72 h): 93.1 ± 2.3 µM
- IC50 (HeLa (cervical tumor); incubation 24 h): 46.1 ± 0.56 µM
- IC50 (HeLa (cervical tumor); incubation 72 h): 38.1 ± 1.21 µM
- IC50 (SH-SY5Y (neuroblastoma); incubation 24 h): 45.2 ± 2.43 µM
- IC50 (SH-SY5Y (neuroblastoma); incubation 72 h): 32.1 ± 1.41 µM
- IC50 ([2]; incubation 24 h): 35 ± 1.35 µM
- IC50 ([2]; incubation 72 h): 27.2 ± 2.5 µM
